In test [1] the target is human Smo (Homo sapiens (Human), UniProt Q99835). Kind of test: Smo radioligand competition binding assay. The note with it: for inhibition at 0.05 µM: 0.05 μM test compound, read-out: Smo % inh. @ 0.05 μM. In short, it runs like this:
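Membranes from HEK293 cells expressing surface human Smo 181-781 (40 μg protein/well) incubated 2 h at room temperature with test compound and tritiated Smo antagonist (3 nM), pH 7.5 Tris buffer; filtration and scintillation counting. Non-specific binding defined with 30 μM cold antagonist; IC50 from four-parameter sigmoidal fit.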

The test system of test [2] is Gli-Luc/MEF cells. Kind of test: Gli-Luc/MEF assay. The format is cell-based, mouse. As to conditions: Mus musculus, MEF; Shh-stimulated luciferase, 48 hours. In short, it runs like this: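 Shh-stimulated luciferase readout (Bright-Glo) after 48 h, 37 °C, 5% CO2, used to derive IC50 of inhibition. Gli-Luc transgenic mouse MEFs received test compounds at final […] in 3-fold dilutions, with recombinant mouse Shh added immediately at final 2 μg/mL.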

human Smo, sequence (Q99835 181-787): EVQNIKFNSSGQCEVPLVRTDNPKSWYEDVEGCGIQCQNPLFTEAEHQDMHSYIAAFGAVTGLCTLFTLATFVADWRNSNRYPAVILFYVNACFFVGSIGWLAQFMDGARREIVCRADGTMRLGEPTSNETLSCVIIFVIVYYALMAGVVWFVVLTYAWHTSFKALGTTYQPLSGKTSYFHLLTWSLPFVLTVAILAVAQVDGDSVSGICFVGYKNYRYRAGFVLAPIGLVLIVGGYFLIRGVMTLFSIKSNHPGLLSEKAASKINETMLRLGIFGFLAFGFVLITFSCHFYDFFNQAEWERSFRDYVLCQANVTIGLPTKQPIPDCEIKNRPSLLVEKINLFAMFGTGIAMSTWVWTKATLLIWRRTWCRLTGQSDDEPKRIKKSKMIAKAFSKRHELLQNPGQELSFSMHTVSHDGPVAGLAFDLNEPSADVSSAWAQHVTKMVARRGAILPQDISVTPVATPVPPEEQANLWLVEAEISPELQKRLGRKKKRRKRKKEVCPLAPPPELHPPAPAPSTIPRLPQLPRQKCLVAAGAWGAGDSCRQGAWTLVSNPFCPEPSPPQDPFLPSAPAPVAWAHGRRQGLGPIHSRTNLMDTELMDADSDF

The term IC50 denotes the point on the concentration scale where inhibition reaches its midpoint. For the molecule `Cc1ccc(-c2nc(N3CCC(NS(C)(=O)=O)CC3)ccc2Br)nc1` [Example A-120, N-[1-(3-bromo-5′-methyl-2,2′-bipyridin-6-yl)piperidin-4-yl]methanesulfonamide], the IC50 was found to be 40 nM in test [1] and 29 nM in test [2]. Moreover, the inhibition at 0.05 µM in test [1] is 93%.

For `Cc1cccnc1-c1cc(N2CCC(C(=O)NC3CCOCC3)CC2)ncc1Cl` [Example A-77, 1-(5′-chloro-3-methyl-2,4′-bipyridin-2′-yl)-N-(tetrahydro-2H-pyran-4-yl)piperidine-4-carboxamide], in test [1], the half-maximal inhibitory concentration (IC50) was 52.5 nM and the inhibition at 0.05 µM is 87.7%. The IC50 in test [2] came out at 48.4 nM.

Regarding `Cc1cc(C#N)cnc1-c1cc(N2CCC(NS(C)(=O)=O)CC2)ncc1Cl` [Example A-125, N-[1-(5′-chloro-5-cyano-3-methyl-2,4′-bipyridin-2′-yl)piperidin-4-yl]methanesulfonamide], in test [1], the IC50 came out at 95.6 nM and the inhibition at 0.05 µM is 82.3%. In test [2], the IC50 is 32.3 nM.

With `Cc1cnc(-c2nc(N3CCC(NC(=O)CO)CC3)ccc2Cl)c(C)c1` [Example A-140, N-[1-(3-chloro-3′,5′-dimethyl-2,2′-bipyridin-6-yl)piperidin-4-yl]-2-hydroxyacetamide], in test [1], the IC50 turned out to be 47.7 nM and the inhibition at 0.05 µM stood at 92%. The midpoint of inhibition in test [2], the IC50, lay at 19.5 nM.

In the case of `Cc1cc(F)cnc1-c1cc(N2CCC(NS(C)(=O)=O)CC2)ncc1Cl` [Example A-108, N-[1-(5′-chloro-5-fluoro-3-methyl-2,4′-bipyridin-2′-yl)piperidin-4-yl]methanesulfonamide], in test [1], the IC50 was 20.8 nM and the inhibition at 0.05 µM came out at 91.5%. Further, the midpoint of inhibition in test [2], the IC50, lay at 11.2 nM.

`Cc1cccnc1-c1cc(N2CCC(C(=O)N3CCCC[C@H]3CO)CC2)ncc1Cl` [Example A-85, [(2S)-1-{[1-(5′-chloro-3-methyl-2,4′-bipyridin-2′-yl)piperidin-4-yl]carbonyl}piperidin-2-yl]methanol]: in test [1], the IC50 came out at 42.4 nM and the inhibition at 0.05 µM was 92.7%. In addition, 116 nM corresponded to half-maximal inhibition in test [2] (IC50).

As for `Cc1cc(F)cnc1-c1cc(N2CCC(NC(=O)CN(C)C)CC2)ncc1Cl` [Example A-145, N-[1-(5′-chloro-5-fluoro-3-methyl-2,4′-bipyridin-2′-yl)piperidin-4-yl]-N^2,N^2-dimethylglycinamide], in test [1], the IC50 came out at 66.2 nM and the inhibition at 0.05 µM turned out to be 88.9%. In test [2], this molecule showed an IC50 of 11.3 nM.

`CS(=O)(=O)CC1CCN(c2ncc(Cl)c(-c3ccccn3)n2)CC1` [Example A-92, 5-chloro-2-{4-[(methylsulfonyl)methyl]piperidin-1-yl}-4-pyridin-2-ylpyrimidine]: in test [1], the IC50 turned out to be 132 nM and the inhibition at 0.05 µM is 79.8%. The same molecule yielded an IC50 in test [2] of 59 nM.

Regarding `Cc1cccnc1-c1nc(N2CCC(NS(C)(=O)=O)CC2)ncc1Cl` [Example A-34, N-{1-[5-chloro-4-(3-methylpyridin-2-yl)pyrimidin-2-yl]piperidin-4-yl}methanesulfonamide], in test [1], the IC50 came to 24.4 nM and the inhibition at 0.05 µM stood at 94.8%. The same molecule yielded an IC50 in test [2] of 20.9 nM.

`Cc1cccnc1-c1cc(N2CCC(C(=O)NCC3CN(CC4CC4)C(=O)CO3)CC2)ncc1Cl` (stereo not shown) [Example A-74, 1-(5′-chloro-3-methyl-2,4′-bipyridin-2′-yl)-N-{[4-(cyclopropylmethyl)-5-oxomorpholin-2-yl]methyl}piperidine-4-carboxamide]: in test [1], the IC50 was 25.5 nM and the inhibition at 0.05 µM was determined as 97.8%. This molecule also registered an IC50 in test [2] of 23 nM.

`Cc1cccnc1-c1nc(N2CCC(CS(C)(=O)=O)CC2)ncc1Cl` [Example A-97, 5-chloro-4-(3-methylpyridin-2-yl)-2-{4-[(methylsulfonyl)methyl]piperidin-1-yl}pyrimidine]: in test [1], the IC50 was 30 nM and the inhibition at 0.05 µM came out at 95.4%. For the same molecule, half-maximal inhibition in test [2] (IC50) required 13.3 nM.

As for `Cc1cccnc1-c1nc(N2CCC(NS(C)(=O)=O)CC2)ccc1Cl` [Example A-16, N-[1-(3-chloro-3′-methyl-2,2′-bipyridin-6-yl)piperidin-4-yl]methanesulfonamide], in test [1], the IC50 came out at 20.6 nM and the inhibition at 0.05 µM is 97.8%. The IC50 in test [2] amounted to 14.5 nM.

Turning to `Cc1cnc(-c2ccnc(N3CCN(C(=O)CN4CCOCC4)CC3)c2)c(C)c1` [Example A-157, 1-[4-(3,5-dimethyl-2,4′-bipyridin-2′-yl)piperazin-1-yl]-2-(morpholin-4-yl)ethanone], in test [1], the IC50 is 14.8 nM and the inhibition at 0.05 µM was determined as 101%. Also, it took 3.58 nM to reach half-maximal inhibition in test [2] (IC50).

As for `COCC(=O)NC1CCN(c2cc(-c3ncc(C)cc3C)c(Cl)cn2)CC1` [Example A-135, N-[1-(5′-chloro-3,5-dimethyl-2,4′-bipyridin-2′-yl)piperidin-4-yl]-2-methoxyacetamide], in test [1], the IC50 was 40 nM and the inhibition at 0.05 µM amounted to 94%. Moreover, half-maximal inhibition in test [2] (IC50) was put at 7.6 nM.

For `Cc1cccnc1-c1cc(N2CCC(C(=O)NC3CCS(=O)(=O)CC3)CC2)ncc1Cl` [Example A-80, 1-(5′-chloro-3-methyl-2,4′-bipyridin-2′-yl)-N-(1,1-dioxidotetrahydro-2H-thiopyran-4-yl)piperidine-4-carboxamide], the IC50 in test [1] worked out at 33.6 nM; in test [2] it was 16.5 nM. Further, the inhibition at 0.05 µM in test [1] is 101%.

With `Cc1cccnc1-c1cc(N2CCC(NCCS(C)(=O)=O)CC2)ncc1Cl` [Example A-49, 1-(5′-chloro-3-methyl-2,4′-bipyridin-2′-yl)-N-[2-(methylsulfonyl)ethyl]piperidin-4-amine], in test [1], the IC50 is 39 nM and the inhibition at 0.05 µM is 87%. In test [2], this molecule returned an IC50 of 44 nM.

For the molecule `Cc1cnc(-c2cc(N3CCN(S(=O)(=O)CCO)CC3)ncc2Cl)c(C)c1` [Example A-111, 2-{[4-(5′-chloro-3,5-dimethyl-2,4′-bipyridin-2′-yl)piperazin-1-yl]sulfonyl}ethanol], in test [1], the IC50 was 23.3 nM and the inhibition at 0.05 µM is 95%. Moreover, in test [2], inhibition was half-maximal at 10.2 nM (IC50).

Turning to `Cc1cccnc1-c1cc(N2CCC(C(=O)NC3CCOC3)CC2)ncc1Cl` (stereo not shown) [Example A-78, 1-(5′-chloro-3-methyl-2,4′-bipyridin-2′-yl)-N-(tetrahydrofuran-3-yl)piperidine-4-carboxamide], in test [1], the IC50 is 295 nM and the inhibition at 0.05 µM is 70.1%. The same molecule gave an IC50 in test [2] of 87.3 nM.

Consider `Cc1cccnc1-c1cc(N2CCC3(CC2)CN(C)C(=O)O3)ncc1Cl` [Example A-20, 8-(5′-chloro-3-methyl-2,4′-bipyridin-2′-yl)-3-methyl-1-oxa-3,8-diazaspiro[4.5]decan-2-one], for which the IC50 worked out at 407 nM in test [1] and 109 nM in test [2]. Also, the inhibition at 0.05 µM in test [1] was determined as 64.6%.

For the molecule `Cc1cccnc1-c1cc(N2CCC(NC(=O)CC(C)(C)O)CC2)ncc1Cl` [Example A-52, N-(1-(5′-chloro-3-methyl-[2,4′-bipyridin]-2′-yl)piperidin-4-yl)-3-hydroxy-3-methylbutanamide], in test [1], the IC50 came to 54.3 nM and the inhibition at 0.05 µM was determined as 90.6%. This molecule also had an IC50 in test [2] of 28 nM.

As for `Cc1cc(F)cnc1-c1cc(N2CCN(C(=O)CCS(C)(=O)=O)CC2)ncc1Cl` [Example A-151, 1-[4-(5′-chloro-5-fluoro-3-methyl-2,4′-bipyridin-2′-yl)piperazin-1-yl]-3-(methylsulfonyl)propan-1-one], the inhibition at 0.05 µM in test [1] stood at 101%. Further, in test [2], it took 8.76 nM to reach half-maximal inhibition (IC50).

Turning to `Cc1cccnc1-c1cc(N2CCN(C(=O)C(C)(C)C)CC2)ncc1Cl` [Example A-43, 5′-chloro-2′-[4-(2,2-dimethylpropanoyl)piperazin-1-yl]-3-methyl-2,4′-bipyridine], in test [1], the IC50 amounted to 25.5 nM and the inhibition at 0.05 µM amounted to 95%. In test [2], this molecule came in with an IC50 of 19.1 nM.

For `Cc1cc(F)cnc1-c1cc(N2CCN(S(=O)(=O)CC(C)(C)O)CC2)ncc1Cl` [Example A-152, 1-{[4-(5′-chloro-5-fluoro-3-methyl-2,4′-bipyridin-2′-yl)piperazin-1-yl]sulfonyl}-2-methylpropan-2-ol], in test [1], the inhibition at 0.05 µM worked out at 95.9%. The IC50 in test [2] worked out at 11.2 nM.

Take `CC(C)(O)CC(=O)N1CCN(c2ccc(Cl)c(-c3ccccn3)n2)CC1` [Example A-90, 4-[4-(3-chloro-2,2′-bipyridin-6-yl)piperazin-1-yl]-2-methyl-4-oxobutan-2-ol]: in test [1], the IC50 is 111 nM and the inhibition at 0.05 µM was 82.5%. In test [2], this molecule returned an IC50 of 66.9 nM.

With `Cc1cccnc1-c1cc(N2CCC(C(=O)NCCS(C)(=O)=O)CC2)ncc1Cl` [Example A-67, 1-(5′-chloro-3-methyl-2,4′-bipyridin-2′-yl)-N-[2-(methylsulfonyl)ethyl]piperidine-4-carboxamide], in test [1], the IC50 was determined as 217 nM and the inhibition at 0.05 µM is 70.4%. Further, the IC50 in test [2] is 164 nM.

For `CC(=O)N1CCN(c2ncc(Cl)c(-c3ncccc3C)n2)CC1` [Example A-26, 2-(4-acetylpiperazin-1-yl)-5-chloro-4-(3-methylpyridin-2-yl)pyrimidine], in test [1], the IC50 amounted to 359 nM and the inhibition at 0.05 µM was 69.9%. The same molecule displayed an IC50 in test [2] of 189 nM.

Take `Cc1cccnc1-c1cc(N2CCC(CNS(C)(=O)=O)CC2)ncc1Cl` [Example A-48, N-{[1-(5′-chloro-3-methyl-2,4′-bipyridin-2′-yl)piperidin-4-yl]methyl}methanesulfonamide]: the values for the IC50 in test [1] and in test [2] were 57 nM and 48 nM, respectively. Further, the inhibition at 0.05 µM in test [1] stood at 82%.

The record behind these values is patent publication US9056865B2, “Pyridine-2-derivatives as smoothened receptor modulators” (Pfizer Inc., priority 2010, dated 2015).
